The results in this text go back to US9796741B2 (Achillion Pharmaceuticals, Inc., priority 2014, dated 2017).

The structures appear in SMILES notation. Like-named read-outs stand apart in the source and are kept apart here. Some results are limits rather than exact numbers.

This experiment deals with Human factor D (Homo sapiens (Human), UniProt P00746). The experiment can be described thus: Human Factor D Assay. The class given is biochemical. Summed up:
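Serum-purified factor D (80 nM final) preincubated 5 min at room temperature with compound in 50 mM Tris, 1M NaCl, pH 7.5. Z-L-Lys-SBzl and DTNB added at 100 μM each; OD405 followed kinetically over 30 min. IC50 by non-linear regression of % inhibition.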

Where [1] appears, read: human factor D 80 nM, substrate Z-L-Lys-SBzl, DTNB.

Chain of Human factor D (P00746 26-253): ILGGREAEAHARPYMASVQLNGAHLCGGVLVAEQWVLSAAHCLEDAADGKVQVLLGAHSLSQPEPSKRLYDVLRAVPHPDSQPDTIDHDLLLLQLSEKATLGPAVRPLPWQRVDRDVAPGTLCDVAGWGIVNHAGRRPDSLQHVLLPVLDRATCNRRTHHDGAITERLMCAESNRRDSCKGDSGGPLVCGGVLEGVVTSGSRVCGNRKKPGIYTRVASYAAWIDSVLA

Consider `CC(=O)c1cn(CC(=O)N2C[C@H](F)C[C@H]2C(=O)Nc2cccc(Br)n2)c2ccc(-c3ccc(C)nc3)cc12` [Compound 120, (2S,4R)-1-(2-(3-acetyl-5-(6-methylpyridin-3-yl)-1H-indol-1-yl)acetyl)-N-(6-bromopyridin-2-yl)-4-fluoropyrrolidine-2-carboxamide], for which the IC50 (commonly the concentration that gives 50% inhibition) under setting [1] was less than 1000 nM.
`CC(=O)c1cn(CC(=O)N2C[C@H](F)C[C@H]2C(=O)Nc2cccc(-c3ccccc3Cl)c2F)c2ccc(-c3cnnc(C)c3)cc12` [Compound 121, (2S,4R)-1-(2-(3-acetyl-5-(6-methylpyridazin-4-yl)-1H-indol-1-yl)acetyl)-N-(2′-chloro-2-fluorobiphenyl-3-yl)-4-fluoropyrrolidine-2-carboxamide] came in with an IC50 under setting [1] of less than 1000 nM.
Still for that read-out and setting: to `COc1cc(C)cc2c1OCCC2NC(=O)[C@@H]1C[C@@H](F)CN1C(=O)Cn1nc(C(N)=O)c2cc(-c3ccnnc3)ccc21` (stereo partly drawn) [Compound 122, 1-(2-((2S,4R)-4-fluoro-2-(8-methoxy-6-methylchroman-4-ylcarbamoyl)pyrrolidin-1-yl)-2-oxoethyl)-5-(pyridazin-4-yl)-1H-indazole-3-carboxamide] belongs greater than 10000 nM; to `COc1cc(C)cc2c1OCCC2NC(=O)[C@@H]1C[C@@H](F)CN1C(=O)Cn1cc(C(C)=O)c2cc(-c3ccnnc3)ccc21` (stereo partly drawn) [Compound 123, (2S,4R)-1-(2-(3-acetyl-5-(pyridazin-4-yl)-1H-indol-1-yl)acetyl)-4-fluoro-N-(8-methoxy-6-methylchroman-4-yl)pyrrolidine-2-carboxamide], greater than 10000 nM.
In the case of `CC(=O)c1cn(CC(=O)N2C[C@H](F)C[C@H]2C(=O)NC2CCCN(c3cc(C)ccc3F)C2=O)c2ccc(-c3ccnnc3)cc12` (stereo partly drawn) [Compound 125, (2S,4R)-1-(2-(3-acetyl-5-(pyridazin-4-yl)-1H-indol-1-yl)acetyl)-4-fluoro-N-(1-(2-fluoro-5-methylphenyl)-2-oxopiperidin-3-yl)pyrrolidine-2-carboxamide], the IC50 was in the range of 1000 to 10000 nM.
In turn, `CC(=O)c1cn(CC(=O)N2C[C@H](F)C[C@H]2C(=O)Nc2cccc(Cl)c2C(F)(F)F)c2ccc(-c3ccnnc3)cc12` [Compound 126, (2S,4R)-1-(2-(3-acetyl-5-(pyridazin-4-yl)-1H-indol-1-yl)acetyl)-N-(3-chloro-2-(trifluoromethyl)phenyl)-4-fluoropyrrolidine-2-carboxamide] showed an IC50 under setting [1] greater than 10000 nM.
Still for that read-out and setting: the value for `CC(=O)c1cn(CC(=O)N2C[C@H](F)C[C@H]2C(=O)Nc2cncc(Br)n2)c2ccc(-c3ccnnc3)cc12` [Compound 127, (2S,4R)-1-(2-(3-acetyl-5-(pyridazin-4-yl)-1H-indol-1-yl)acetyl)-N-(6-bromopyrazin-2-yl)-4-fluoropyrrolidine-2-carboxamide] was less than 1000 nM; that for `NC(=O)c1nn(CC(=O)N2C[C@H](F)C[C@H]2C(=O)Nc2cncc(Br)n2)c2ccc(-c3ccnnc3)cc12` [Compound 128, 1-(2-((2S,4R)-2-(6-bromopyrazin-2-ylcarbamoyl)-4-fluoropyrrolidin-1-yl)-2-oxoethyl)-5-(pyridazin-4-yl)-1H-indazole-3-carboxamide] was less than 1000 nM; that for `NC(=O)c1nn(CC(=O)N2C[C@H](F)C[C@H]2C(=O)Nc2ccc3ccccc3c2)c2ccc(-c3ccnnc3)cc12` [Compound 131, 1-(2-((2S,4R)-4-fluoro-2-(naphthalen-2-ylcarbamoyl)pyrrolidin-1-yl)-2-oxoethyl)-5-(pyridazin-4-yl)-1H-indazole-3-carboxamide] was greater than 10000 nM.
The same measure, in the same setting: to `CC(=O)c1cn(CC(=O)N2[C@@H]3C[C@@H]3C[C@H]2C(=O)Nc2cccc(-c3ccccc3Cl)c2F)c2ccc(-c3cnc(C)nc3)cc12` [Compound 133, (1R,3S,5R)-2-(2-(3-acetyl-5-(2-methylpyrimidin-5-yl)-1H-indol-1-yl)acetyl)-N-(2′-chloro-2-fluorobiphenyl-3-yl)-2-azabicyclo[3.1.0] hexane-3-carboxamide] belongs less than 1000 nM; to `CC(=O)c1cn(CC(=O)N2[C@@H]3C[C@@H]3C[C@H]2C(=O)NCc2cccc(Cl)c2F)c2ccc(-c3cnc(C)nc3)cc12` [Compound 134, (1R,3S,5R)-2-(2-(3-acetyl-5-(2-methylpyrimidin-5-yl)-1H-indol-1-yl)acetyl)-N-(3-chloro-2-fluorobenzyl)-2-azabicyclo[3.1.0] hexane-3-carboxamide], less than 1000 nM; to `CC(=O)c1cn(CC(=O)N2C[C@H](F)C[C@H]2C(=O)NCc2cccc(Cl)c2F)c2ccc(-c3cnc(C)nc3)cc12` [Compound 135, (2S,4R)-1-(2-(3-acetyl-5-(2-methylpyrimidin-5-yl)-1H-indol-1-yl)acetyl)-N-(3-chloro-2-fluorobenzyl)-4-fluoropyrrolidine-2-carboxamide], less than 1000 nM.
The same measure, in the same setting: to `COc1ncc(-c2ccc3c(c2)c(C(C)=O)cn3CC(=O)N2C[C@H](F)C[C@H]2C(=O)NCc2cccc(Cl)c2F)cn1` [Compound 136, (2S,4R)-1-(2-(3-acetyl-5-(2-methoxypyrimidin-5-yl)-1H-indol-1-yl)acetyl)-N-(3-chloro-2-fluorobenzyl)-4-fluoropyrrolidine-2-carboxamide] belongs less than 1000 nM.
In turn, `CC(=O)c1cn(CC(=O)N2C[C@H](F)C[C@H]2C(=O)Nc2cccc(Cl)n2)c2ccc(-c3cnc(C)nc3)cc12` [Compound 137, (2S,4R)-1-(2-(3-acetyl-5-(2-methylpyrimidin-5-yl)-1H-indol-1-yl)acetyl)-N-(6-chloropyridin-2-yl)-4-fluoropyrrolidine-2-carboxamide] returned an IC50 under setting [1] of less than 1000 nM.
Turning to `CC(=O)Nc1ncc(-c2ccc3c(c2)c(C(C)=O)cn3CC(=O)N2C[C@H](F)C[C@H]2C(=O)Nc2cccc(-c3ccccc3Cl)c2F)cn1` [Compound 138, (2S,4R)-1-(2-(5-(2-acetamidopyrimidin-5-yl)-3-acetyl-1H-indol-1-yl)acetyl)-N-(2′-chloro-2-fluorobiphenyl-3-yl)-4-fluoropyrrolidine-2-carboxamide], the IC50 under setting [1] was less than 1000 nM.
Molecule `NC(=O)c1nn(CC(=O)N2C[C@H](F)C[C@H]2C(=O)NCc2ccccn2)c2ccc(-c3ccnnc3)cc12` [Compound 139, 1-(2-((2S,4R)-4-fluoro-2-(pyridin-2-ylmethylcarbamoyl)pyrrolidin-1-yl)-2-oxoethyl)-5-(pyridazin-4-yl)-1H-indazole-3-carboxamide] had an IC50 of 1000 to 10000 nM.
Still for that read-out and setting: the value for `CC(=O)c1cn(CC(=O)N2C[C@H](F)C[C@H]2C(=O)NC2CCCN(c3cnn(C)c3)C2)c2ccc(-c3ccnnc3)cc12` (stereo partly drawn) [Compound 140, (2S,4R)-1-(2-(3-acetyl-5-(pyridazin-4-yl)-1H-indol-1-yl)acetyl)-4-fluoro-N-(1-(1-methyl-1H-pyrazol-4-yl)piperidin-3-yl)pyrrolidine-2-carboxamide] was 1000 to 10000 nM.
`Cn1cc(N2CCCC(NC(=O)[C@@H]3C[C@@H](F)CN3C(=O)Cn3nc(C(N)=O)c4cc(-c5ccnnc5)ccc43)C2)cn1` (stereo partly drawn) [Compound 141, 1-(2-((2S,4R)-4-fluoro-2-(1-(1-methyl-1H-pyrazol-4-yl)piperidin-3-ylcarbamoyl)pyrrolidin-1-yl)-2-oxoethyl)-5-(pyridazin-4-yl)-1H-indazole-3-carboxamide] came in with an IC50 under setting [1] greater than 10000 nM.
The molecule `CC(=O)c1cn(CC(=O)N2C[C@H](F)C[C@H]2C(=O)N[C@@H]2CCC[C@H]2O)c2ccc(-c3ccnnc3)cc12` [Compound 143, (2S,4R)-1-(2-(3-acetyl-5-(pyridazin-4-yl)-1H-indol-1-yl)acetyl)-4-fluoro-N-((1R,2R)-2-hydroxycyclopentyl) pyrrolidine-2-carboxamide] showed an IC50 under setting [1] greater than 10000 nM.
Same read-out and setting: to `CC(=O)c1cn(CC(=O)N2C[C@H](F)C[C@H]2C(=O)Nc2cccc(O)n2)c2ccc(-c3ccnnc3)cc12` [Compound 144, (2S,4R)-1-(2-(3-acetyl-5-(pyridazin-4-yl)-1H-indol-1-yl)acetyl)-4-fluoro-N-(6-hydroxypyridin-2-yl)pyrrolidine-2-carboxamide] belongs greater than 10000 nM.
As for `NC(=O)c1nn(CC(=O)N2C[C@H](F)C[C@H]2C(=O)N[C@@H]2CCC[C@H]2O)c2ccc(-c3ccnnc3)cc12` [Compound 145, 1-(2-((2S,4R)-4-fluoro-2-((1R,2R)-2-hydroxycyclopentyl-carbamoyl)pyrrolidin-1-yl)-2-oxoethyl)-5-(pyridazin-4-yl)-1H-indazole-3-carboxamide], the IC50 under setting [1] is greater than 10000 nM.
Under setting [1], `NC(=O)c1nn(CC(=O)N2C[C@H](F)C[C@H]2C(=O)Nc2nc(-c3cccc(Cl)c3)ns2)c2ccc(-c3ccnnc3)cc12` [Compound 146, 1-(2-((2S,4R)-2-(3-(3-chlorophenyl)-1,2,4-thiadiazol-5-ylcarbamoyl)-4-fluoropyrrolidin-l-yl)-2-oxoethyl)-5-(pyridazin-4-yl)-1H-indazole-3-carboxamide] had an IC50 greater than 10000 nM.
Still for that read-out and setting: the value for `CC(=O)c1cn(CC(=O)N2C[C@H](F)C[C@H]2C(=O)Nc2nc(-c3cccc(Cl)c3)ns2)c2ccc(-c3ccnnc3)cc12` [Compound 147, (2S,4R)-1-(2-(3-acetyl-5-(pyridazin-4-yl)-1H-indol-1-yl)acetyl)-N-(3-(3-chlorophenyl)-1,2,4-thiadiazol-5-yl)-4-fluoropyrrolidine-2-carboxamide] was greater than 10000 nM; that for `CC(=O)c1cn(CC(=O)N2C[C@H](F)C[C@H]2C(=O)Nc2cccc(-c3cc(F)c(F)cc3Cl)c2F)c2ccc(-c3cnc(C)nc3)cc12` [Compound 150, (2S,4R)-1-(2-(3-acetyl-5-(2-methylpyrimidin-5-yl)-1H-indol-1-yl)acetyl)-N-(2′-chloro-2,4′,5′-trifluorobiphenyl-3-yl)-4-fluoropyrrolidine-2-carboxamide] was less than 1000 nM; that for `CC(=O)c1cn(CC(=O)N2C[C@H](F)C[C@H]2C(=O)Nc2cccc(-c3ccccc3Cl)c2F)c2ccc(-c3ccc(C)nc3)cc12` [Compound 151, (2S,4R)-1-(2-(3-acetyl-5-(6-methylpyridin-3-yl)-1H-indol-1-yl)acetyl)-N-(2′-chloro-2-fluorobiphenyl-3-yl)-4-fluoropyrrolidine-2-carboxamide] was less than 1000 nM.
